# According to patent publication US8895756B2, “Bendamustine pharmaceutical compositions” (priority 2005, dated 2014):
# Assay: HPLC stability of bendamustine (15 mg/mL, mannitol 25.5 mg/mL) in alcohol/water solutions at 5° C.
# Type: physicochemical
# Conditions: for HP1 (%) / Purity (% Area) / Dimer (%): 5° C.
# Description: A sample of each formulation was analyzed by HPLC after 0, 3, 6 and 24 hours when stored at 5° C.
# [1] = 20% Butanol (2 layers, vortexed), 0 hours
# [2] = 20% Butanol (2 layers, vortexed), 3 hours
# [3] = 20% Butanol (2 layers, vortexed), 6 hours
# [4] = 20% Butanol (2 layers, vortexed), 24 hours
# [5] = 30% Butanol (2 layers, vortexed), 0 hours
# [6] = 30% Butanol (2 layers, vortexed), 3 hours
# [7] = 30% Butanol (2 layers, vortexed), 6 hours
# [8] = 30% Butanol (2 layers, vortexed), 24 hours
compound,measurement,setting,value
"Cl.Cn1c(CCCC(=O)O)nc2cc(N(CCCl)CCCl)ccc21 [bendamustine, 4-{5-[Bis(2-chloroethyl)amino]-1-methyl-2-benzimidazolyl}butyric acid]",HP1 (%),"10% n-Propanol, 6 hours",0.70%
same,Purity (% Area),"10% n-Propanol, 6 hours",98.92 % Area
same,Dimer (%),"10% n-Propanol, 24 hours",0.28%
same,HP1 (%),"10% n-Propanol, 24 hours",1.83%
same,Purity (% Area),"10% n-Propanol, 24 hours",97.67 % Area
same,Dimer (%),[1],0.10%
same,HP1 (%),[1],0.23%
same,Purity (% Area),[1],99.54 % Area
same,Dimer (%),[2],0.11%
same,HP1 (%),[2],0.31%
same,Purity (% Area),[2],99.45 % Area
same,Dimer (%),[3],0.11%
same,HP1 (%),[3],0.40%
same,Purity (% Area),[3],99.30 % Area
same,Dimer (%),[4],0.14%
same,HP1 (%),[4],0.91%
same,Purity (% Area),[4],98.81 % Area
same,Dimer (%),"20% Ethanol, 0 hours",0.10%
same,HP1 (%),"20% Ethanol, 0 hours",0.22%
same,Purity (% Area),"20% Ethanol, 0 hours",99.54 % Area
same,Dimer (%),"20% Ethanol, 3 hours",0.11%
same,HP1 (%),"20% Ethanol, 3 hours",0.30%
same,Purity (% Area),"20% Ethanol, 3 hours",99.45 % Area
same,Dimer (%),"20% Ethanol, 6 hours",0.11%
same,HP1 (%),"20% Ethanol, 6 hours",0.39%
same,Purity (% Area),"20% Ethanol, 6 hours",99.36 % Area
same,Dimer (%),"20% Ethanol, 24 hours",0.15%
same,HP1 (%),"20% Ethanol, 24 hours",0.96%
same,Purity (% Area),"20% Ethanol, 24 hours",98.61 % Area
same,Dimer (%),"20% Iso-propanol, 0 hours",0.11%
same,HP1 (%),"20% Iso-propanol, 0 hours",0.21%
same,Purity (% Area),"20% Iso-propanol, 0 hours",99.49 % Area
same,Dimer (%),"20% Iso-propanol, 3 hours",0.12%
same,HP1 (%),"20% Iso-propanol, 3 hours",0.31%
same,Purity (% Area),"20% Iso-propanol, 3 hours",99.39 % Area
same,Dimer (%),"20% Iso-propanol, 6 hours",0.13%
same,HP1 (%),"20% Iso-propanol, 6 hours",0.42%
same,Purity (% Area),"20% Iso-propanol, 6 hours",99.22 % Area
same,Dimer (%),"20% Iso-propanol, 24 hours",0.17%
same,HP1 (%),"20% Iso-propanol, 24 hours",1.04%
same,Purity (% Area),"20% Iso-propanol, 24 hours",98.61 % Area
same,Dimer (%),"20% Methanol, 0 hours",0.11%
same,HP1 (%),"20% Methanol, 0 hours",0.22%
same,Purity (% Area),"20% Methanol, 0 hours",99.56 % Area
same,Dimer (%),"20% Methanol, 3 hours",0.11%
same,HP1 (%),"20% Methanol, 3 hours",0.38%
same,Purity (% Area),"20% Methanol, 3 hours",99.31 % Area
same,Dimer (%),"20% Methanol, 6 hours",0.12%
same,HP1 (%),"20% Methanol, 6 hours",0.50%
same,Purity (% Area),"20% Methanol, 6 hours",98.99 % Area
same,Dimer (%),"20% Methanol, 24 hours",0.16%
same,HP1 (%),"20% Methanol, 24 hours",1.15%
same,Purity (% Area),"20% Methanol, 24 hours",98.31 % Area
same,Dimer (%),"20% Tert-butanol, 0 hours",0.11%
same,HP1 (%),"20% Tert-butanol, 0 hours",0.17%
same,Purity (% Area),"20% Tert-butanol, 0 hours",99.59 % Area
same,Dimer (%),"20% Tert-butanol, 3 hours",0.11%
same,HP1 (%),"20% Tert-butanol, 3 hours",0.29%
same,Purity (% Area),"20% Tert-butanol, 3 hours",99.48 % Area
same,Dimer (%),"20% Tert-butanol, 6 hours",0.12%
same,HP1 (%),"20% Tert-butanol, 6 hours",0.40%
same,Purity (% Area),"20% Tert-butanol, 6 hours",99.35 % Area
same,Dimer (%),"20% Tert-butanol, 24 hours",0.20%
same,HP1 (%),"20% Tert-butanol, 24 hours",1.27%
same,Purity (% Area),"20% Tert-butanol, 24 hours",98.35 % Area
same,Dimer (%),"20% n-Propanol, 0 hours",0.13%
same,HP1 (%),"20% n-Propanol, 0 hours",0.33%
same,Purity (% Area),"20% n-Propanol, 0 hours",99.45 % Area
same,Dimer (%),"20% n-Propanol, 3 hours",0.13%
same,HP1 (%),"20% n-Propanol, 3 hours",0.26%
same,Purity (% Area),"20% n-Propanol, 3 hours",99.42 % Area
same,Dimer (%),"20% n-Propanol, 6 hours",0.14%
same,HP1 (%),"20% n-Propanol, 6 hours",0.39%
same,Purity (% Area),"20% n-Propanol, 6 hours",99.29 % Area
same,Dimer (%),"20% n-Propanol, 24 hours",0.24%
same,HP1 (%),"20% n-Propanol, 24 hours",0.97%
same,Purity (% Area),"20% n-Propanol, 24 hours",98.60 % Area
same,HP1,"30% (v/v) TBA, stored at 5° C. for up to 24 hours",about 0.4%
same,Dimer (%),[5],0.10%
same,HP1 (%),[5],0.24%
same,Purity (% Area),[5],99.55 % Area
same,Dimer (%),[6],0.10%
same,HP1 (%),[6],0.29%
same,Purity (% Area),[6],99.40 % Area
same,Dimer (%),[7],0.11%
same,HP1 (%),[7],0.37%
same,Dimer (%),[8],0.12%
same,HP1 (%),[8],0.74%
same,Dimer (%),"30% Ethanol, 0 hours",0.10%
same,HP1 (%),"30% Ethanol, 0 hours",0.15%
same,Purity (% Area),"30% Ethanol, 0 hours",99.62 % Area
same,Dimer (%),"30% Ethanol, 3 hours",0.11%
same,HP1 (%),"30% Ethanol, 3 hours",0.21%
same,Purity (% Area),"30% Ethanol, 3 hours",99.56 % Area
same,Dimer (%),"30% Ethanol, 6 hours",0.12%
same,HP1 (%),"30% Ethanol, 6 hours",0.24%
same,Purity (% Area),"30% Ethanol, 6 hours",99.52 % Area
same,Dimer (%),"30% Ethanol, 24 hours",0.12%
same,HP1 (%),"30% Ethanol, 24 hours",0.45%
same,Purity (% Area),"30% Ethanol, 24 hours",99.21 % Area
same,Dimer (%),"30% Iso-propanol, 0 hours",0.10%
same,HP1 (%),"30% Iso-propanol, 0 hours",0.15%
same,Purity (% Area),"30% Iso-propanol, 0 hours",99.56 % Area
same,Dimer (%),"30% Iso-propanol, 3 hours",0.12%
same,HP1 (%),"30% Iso-propanol, 3 hours",0.20%
same,Purity (% Area),"30% Iso-propanol, 3 hours",99.47 % Area
same,Dimer (%),"30% Iso-propanol, 6 hours",0.11%
same,HP1 (%),"30% Iso-propanol, 6 hours",0.24%
same,Purity (% Area),"30% Iso-propanol, 6 hours",99.40 % Area
same,Dimer (%),"30% Iso-propanol, 24 hours",0.14%
same,HP1 (%),"30% Iso-propanol, 24 hours",0.52%
same,Purity (% Area),"30% Iso-propanol, 24 hours",99.15 % Area
same,Dimer (%),"30% Methanol, 0 hours",0.10%
same,HP1 (%),"30% Methanol, 0 hours",0.18%
same,Purity (% Area),"30% Methanol, 0 hours",99.59 % Area
same,Dimer (%),"30% Methanol, 3 hours",0.11%
same,HP1 (%),"30% Methanol, 3 hours",0.27%
same,Purity (% Area),"30% Methanol, 3 hours",99.43 % Area
same,Dimer (%),"30% Methanol, 6 hours",0.11%
same,HP1 (%),"30% Methanol, 6 hours",0.34%
same,Purity (% Area),"30% Methanol, 6 hours",99.25 % Area
same,Dimer (%),"30% Methanol, 24 hours",0.13%
same,HP1 (%),"30% Methanol, 24 hours",0.76%
same,Purity (% Area),"30% Methanol, 24 hours",98.65 % Area
same,Dimer (%),"30% Tert-butanol, 0 hours",0.10%
same,HP1 (%),"30% Tert-butanol, 0 hours",0.13%
same,Purity (% Area),"30% Tert-butanol, 0 hours",99.63 % Area
same,Dimer (%),"30% Tert-butanol, 3 hours",0.10%
same,HP1 (%),"30% Tert-butanol, 3 hours",0.16%
same,Purity (% Area),"30% Tert-butanol, 3 hours",99.60 % Area
same,Dimer (%),"30% Tert-butanol, 6 hours",0.11%
same,HP1 (%),"30% Tert-butanol, 6 hours",0.18%
same,Purity (% Area),"30% Tert-butanol, 6 hours",99.58 % Area
same,Dimer (%),"30% Tert-butanol, 24 hours",0.12%
same,HP1 (%),"30% Tert-butanol, 24 hours",0.34%
same,Purity (% Area),"30% Tert-butanol, 24 hours",99.42 % Area
same,Dimer (%),"30% n-Propanol, 0 hours",0.13%
same,HP1 (%),"30% n-Propanol, 0 hours",0.15%
same,Purity (% Area),"30% n-Propanol, 0 hours",99.53 % Area
same,Dimer (%),"30% n-Propanol, 3 hours",0.15%
same,HP1 (%),"30% n-Propanol, 3 hours",0.15%
same,Purity (% Area),"30% n-Propanol, 3 hours",99.51 % Area
same,Dimer (%),"30% n-Propanol, 6 hours",0.11%
same,HP1 (%),"30% n-Propanol, 6 hours",0.20%
same,Purity (% Area),"30% n-Propanol, 6 hours",99.44 % Area
same,Dimer (%),"30% n-Propanol, 24 hours",0.17%
same,HP1 (%),"30% n-Propanol, 24 hours",0.36%
same,Purity (% Area),"30% n-Propanol, 24 hours",99.27 % Area
